Results on 17 compounds are retold here after US8962322B2, “Enhancers of induced pluripotent stem cell reprogramming” (City of Hope, priority 2012, dated 2015).

Where two headings read alike, the source gives them in different places.

The test system of one series is MEFs. Conditions: OSKM, cited from earlier work.
The test system of another series is human Nanog promoter. As to the kind of experiment: Nanog-luc luciferase reporter assay (stably transfected CV1 cells). Format: cell-based. The conditions noted are these: for Nanog-luc fold Induction: compound at 1 μM, Nanog-luc cells, triplicates. As for the experimental part: Oct4, Sox2, and Nanog form a positive regulatory loop to regulate the expression of each other, and Nanog is considered a downstream target gene of Oct4 and Sox2 (37). Therefore, activation of Nanog promoter was used as a validation assay for the identified compounds. Specifically, the Oct4 promoter-activating compounds were tested to ascertain whether they activate a human
Nanog promoter-driven luciferase reporter gene using in triplicate luciferase reporter assays.
(§1) Then the promoter sequences were cloned into pGL4.4-luc-Hyg vector (Promega) to get Oct4-luc or Nanog-luc construct and the fidelity of the Oct4 and Nanog promoter DNA sequences was confirmed by bi-directional sequencing. CV 1 cells were transfected with the Oct4-luc or Nanog-luc constructs and the stably-transfected cells were selected by hygromycine resistance.
(§2) Luciferase Reporter Assays: The Oct4-luc or Nanog-luc cells were treated with compound OAC 1 or its structural analogs at 1 μM concentration or at indicated concentrations in triplicates. Other compounds used include 2 μM BIO, 2 μM BIX, 2 μM
(§3) AzaC, 25 μg/ml Vc, 10 nM Am580, 5 μM tranylcypromine, and 0.5 mM VPA. Luciferase reporter assays were performed as described (51) 24 hr after compound treatment or at indicated time points. For Topflash reporter assays, 0.2 μg β-catenin-responsive Topflash reporter gene plasmid was introduced into CV1 cells using trasfection (Bio-Rad). Compounds were added 6 hr after transfection. Luciferase activity was measured 48 hr after compound treatment using the Glo Luciferase Assay System (Promega).
Background: Reporter assays use an easily measured gene product as a stand-in for the process of interest.

For another series, the system named is human Oct4 promoter. As to the kind of experiment: Oct4-luc luciferase reporter assay (stably transfected CV1 cells). Type of series: cell-based. The conditions noted are these: for Oct4-luc Activity / Oct4-luc fold Induction: compound at 1 μM, Oct4-luc cells, triplicates.
From the text: A high-throughput screening scheme was designed to identify Oct4 promoter-activating compounds using a luciferase reporter under the control of the human Oct4 promoter (Oct4-luc). […] A stable cell line (Oct4-luc) that expresses luciferase reporter driven by the exogenous Oct4 promoter was established using hygromycin-resistance as a selection marker. These Oct4-luc cells were used for high-throughput screening of a chemical library of 80,000 compounds. The luciferase reporter activity was measured 24 hr after compound treatment. Solvent treatment was included as a negative control.
as §1
Compound Screening: The Oct4-luc cells were seeded at 1.75×10^4 cells per well density into 96-well plates. Compounds were added to cells one day after cell seeding at the concentration of 10 μM for 24 hr in the High-Throughput Screening core facility at City of Hope. Compounds that induced luciferase activity 3-fold or more were selected for further validation in both Oct4-luc and Nanog-luc cells.
as §2, §3

Where [1] appears, read: seeding 5 × 10^4, day 25, reference (4) Lyssiotis 2009.
Setting [2] is: seeding 7,500, day 30, reference (5) Ichida 2009.
The mark [3] stands for this setting: OAC1 1 μM, BIO 2 μM, BIX 2 μM, AzaC 2 μM, Vc 25 μg/ml, Am580 10 nM, tranylcypromine 5 μM, VPA 0.5 mM, two days.

Take `O=C1Cc2c([nH]c3ccc(Br)cc23)-c2ccccc2N1` [Kenpaullone, kenpaullone]: in the series on MEFs (setting [1]), the Colony numbers was 100 and the Reprogramming efficiency is reported as 0.2%.

Take `COc1ccc(C(=O)Nc2ccc3[nH]ccc3c2)cc1` [OAC4]: the “Nanog-luc fold Induction” value with human Nanog promoter is recorded as 4.9 fold. Moreover, in the series on human Oct4 promoter, the “Oct4-luc Activity” value is reported as “++ (Compounds that induce Oct4-luc 1.8-fold or more were classified as “++”)” and the “Oct4-luc fold Induction” value was found to be 4.8 fold.

Regarding `O=C(Nc1ccc2[nH]ccc2c1)c1ccc2nonc2c1` [OAC5], the “Nanog-luc fold Induction” value in the series with human Nanog promoter was determined as 2.4 fold. In the series on human Oct4 promoter, the “Oct4-luc Activity” value was “++ (Compounds that induce Oct4-luc 1.8-fold or more were classified as “++”)” and the “Oct4-luc fold Induction” value is reported as 2.9 fold.

As for `COc1ccc(C(=O)Nc2ccc3[nH]ncc3c2)cc1` [OAC6], in the series with human Nanog promoter, the “Nanog-luc fold Induction” value came to 2.9 fold. Moreover, in the series with human Oct4 promoter, the “Oct4-luc Activity” value is given as “++ (Compounds that induce Oct4-luc 1.8-fold or more were classified as “++”)” and the “Oct4-luc fold Induction” value is 3.2 fold.

Turning to `O=C(Nc1ccc2[nH]ncc2c1)c1ccc(F)cc1` [OAC7], the “Nanog-luc fold Induction” value in the series with human Nanog promoter amounted to 2.0 fold. Moreover, in the series on human Oct4 promoter, the “Oct4-luc Activity” value is given as “++ (Compounds that induce Oct4-luc 1.8-fold or more were classified as “++”)” and the “Oct4-luc fold Induction” value turned out to be 2.2 fold.

With `O=C(Nc1ccc2[nH]ncc2c1)c1ccccc1` [OAC8], the “Nanog-luc fold Induction” value in the series with human Nanog promoter is listed as 1.8 fold. For the same compound, in the series on human Oct4 promoter, the “Oct4-luc Activity” value is “++ (Compounds that induce Oct4-luc 1.8-fold or more were classified as “++”)” and the “Oct4-luc fold Induction” value worked out at 1.9 fold.

On to `CCOc1ccc(C(=O)Nc2ccc3[nH]ncc3c2)cc1` [OAC9], for which the “Nanog-luc fold Induction” value with human Nanog promoter amounted to 4.4 fold. Also, in the series with human Oct4 promoter, the “Oct4-luc Activity” value is given as “++ (Compounds that induce Oct4-luc 1.8-fold or more were classified as “++”)” and the “Oct4-luc fold Induction” value came out at 4.4 fold.

With `CCc1ccc(C(=O)Nc2ccc3[nH]ncc3c2)cc1` [OAC10], the “Nanog-luc fold Induction” value in the series with human Nanog promoter is reported as 4.4 fold. Also, in the series on human Oct4 promoter, the “Oct4-luc Activity” value is “++ (Compounds that induce Oct4-luc 1.8-fold or more were classified as “++”)” and the “Oct4-luc fold Induction” value was found to be 4.5 fold.

For the compound `CC(C)c1ccc(C(=O)Nc2ccc3[nH]ncc3c2)cc1` [OAC11], in the series on human Nanog promoter, the “Nanog-luc fold Induction” value was 3.9 fold. In the series with human Oct4 promoter, the “Oct4-luc Activity” value is listed as “++ (Compounds that induce Oct4-luc 1.8-fold or more were classified as “++”)” and the “Oct4-luc fold Induction” value came to 3.8 fold.

In the case of `Cc1ccc(C(=O)Nc2ccc3[nH]ncc3c2)cc1C` [OAC13], the “Nanog-luc fold Induction” value in the series on human Nanog promoter amounted to 2.9 fold. Further, in the series with human Oct4 promoter, the “Oct4-luc Activity” value is on record as “++ (Compounds that induce Oct4-luc 1.8-fold or more were classified as “++”)” and the “Oct4-luc fold Induction” value worked out at 2.8 fold.

For `CCOc1cccc(C(=O)Nc2ccc3[nH]ncc3c2)c1` [OAC14], the “Nanog-luc fold Induction” value with human Nanog promoter was found to be 2.6 fold. In the series with human Oct4 promoter, the “Oct4-luc Activity” value was “++ (Compounds that induce Oct4-luc 1.8-fold or more were classified as “++”)” and the “Oct4-luc fold Induction” value is 2.7 fold.

Regarding `COc1cccc(C(=O)Nc2ccc3[nH]ncc3c2)c1` [OAC15], the “Nanog-luc fold Induction” value in the series with human Nanog promoter amounted to 1.9 fold. In the series with human Oct4 promoter, the “Oct4-luc Activity” value was “++ (Compounds that induce Oct4-luc 1.8-fold or more were classified as “++”)” and the “Oct4-luc fold Induction” value worked out at 1.9 fold.

For the compound `COc1ccc(C(=O)Nc2ccc3[nH]c(C)cc3c2)cc1` [OAC16], the “Nanog-luc fold Induction” value with human Nanog promoter came out at 3.43 fold. Moreover, in the series on human Oct4 promoter, the “Oct4-luc Activity” value is “++ (Compounds that induce Oct4-luc 1.8-fold or more were classified as “++”)” and the “Oct4-luc fold Induction” value was found to be 3 fold.

In the case of `CN(C)c1ccc(C(=O)Nc2ccc3[nH]ncc3c2)cc1` [OAC17], the “Nanog-luc fold Induction” value in the series on human Nanog promoter is on record as 4.56 fold. Also, in the series on human Oct4 promoter, the “Oct4-luc Activity” value is “++ (Compounds that induce Oct4-luc 1.8-fold or more were classified as “++”)” and the “Oct4-luc fold Induction” value was found to be 4.2 fold.

As for `O=C(Nc1ccc2[nH]ncc2c1)c1ccc(Br)cc1` [OAC18], the “Nanog-luc fold Induction” value with human Nanog promoter stood at 4.5 fold. In addition, in the series with human Oct4 promoter, the “Oct4-luc Activity” value is listed as “++ (Compounds that induce Oct4-luc 1.8-fold or more were classified as “++”)” and the “Oct4-luc fold Induction” value was found to be 4.49 fold.

For `Cc1cccc(-c2[nH]ncc2-c2ccc3ncccc3n2)n1` [RepSox2], in the series on MEFs (setting [2]), the Colony numbers is 7.5 and the Reprogramming efficiency is reported as 0.1%.

Regarding `O=C1O[C@H]([C@@H](O)CO)C(O)=C1O` [Vc, Vitamin C, reference compound], the “induction of Nanog-luc, comparison with known reprogramming enhancers (in words)” value in the series with human Nanog promoter (setting [3]) is listed as “no significant effect”. The “induction of Oct4-luc, comparison with known reprogramming enhancers (in words)” value with human Oct4 promoter (setting [3]) was “no significant effect”.
